Results from patent US20050197338A1, “Substituted pyrazole urea compounds for the treatment of inflammation” (priority 2003, published 2005).

Each compound was assayed against T1, human IKK-2 (rhIKK-2 homodimer) (Homo sapiens, UniProt O14920) (assay: IKK-2 Resin Enzyme Assay (Human IKK-2 Enzyme Assay)). Details: human IKK-2, resin enzyme assay; read-out: IC50 (μM) hIKK-2.
T1 construct: FLAG (DYKDDDDKD) (C); made in house; host or cells: insect cells (baculovirus, pFastBac)
T1 sequence (O14920 1-756): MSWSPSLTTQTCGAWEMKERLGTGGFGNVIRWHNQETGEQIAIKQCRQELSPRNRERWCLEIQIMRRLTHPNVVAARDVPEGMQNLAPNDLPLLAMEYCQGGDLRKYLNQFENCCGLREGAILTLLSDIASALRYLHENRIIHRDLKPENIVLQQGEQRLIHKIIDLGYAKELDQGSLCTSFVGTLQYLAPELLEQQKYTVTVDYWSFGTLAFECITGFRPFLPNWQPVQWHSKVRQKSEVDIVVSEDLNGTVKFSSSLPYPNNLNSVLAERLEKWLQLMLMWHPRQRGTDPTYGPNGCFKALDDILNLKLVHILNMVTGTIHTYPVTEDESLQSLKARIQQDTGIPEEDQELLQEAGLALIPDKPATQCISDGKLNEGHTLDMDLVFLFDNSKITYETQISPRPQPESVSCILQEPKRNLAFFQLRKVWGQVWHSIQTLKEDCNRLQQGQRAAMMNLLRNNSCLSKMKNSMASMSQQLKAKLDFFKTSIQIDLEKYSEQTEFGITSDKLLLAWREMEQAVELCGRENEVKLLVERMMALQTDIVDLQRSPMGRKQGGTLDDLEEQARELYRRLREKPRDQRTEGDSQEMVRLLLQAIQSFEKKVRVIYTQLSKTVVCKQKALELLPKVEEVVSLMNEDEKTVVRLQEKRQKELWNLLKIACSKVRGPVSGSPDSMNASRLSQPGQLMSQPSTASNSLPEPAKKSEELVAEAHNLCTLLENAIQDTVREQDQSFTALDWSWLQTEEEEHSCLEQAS
Assay type: biochemical
Text: Materials: SAM^2™96 Biotin capture plates were from Promega. Anti-FLAG affinity resin, FLAG-peptide, NP-40 (Nonidet P-40), BSA, ATP, ADP, AMP, LPS (E. coli serotype 0111:B4), and dithiothreitol were obtained from Sigma Chemicals. Antibodies specific for NEMO (IKK-γ) (FL-419), IKK-1 (H-744), IKK-2(H-470) and IκBa(C-21) were purchased from Santa Cruz Biotechnology. Ni-NTA resin was purchased from Qiagen. Peptides were purchased from American Peptide Company. Protease inhibitor cocktail tablets were from Boehringer Mannheim. Sephacryl S-300 column was from Pharmacia LKB Biotechnology. Centriprep-10 concentrators with a molecular weight cutoff of 10 kDa and membranes with molecular weight cut-off of 30 kDa were obtained from Amicon. [γ-^33P] ATP (2500 Ci/mmol) and [γ-^32P] ATP (6000 Ci/mmol) were purchased from Amersham. The other reagents used were of the highest grade commercially available.
Cloning and Expression: cDNAs of human IKK-1 and IKK-2 were amplified by reverse transcriptase-polymerase chain reaction from human placental RNA (Clonetech). hlKK-1 was subcloned into pFastBac HTa (Life Technologies) and expressed as N-terminal His6-tagged fusion protein. The hlKK-2 cDNA was amplified using a reverse oligonucleotide primer which incorporated the peptide sequence for a FLAG-epitope tag at the C-terminus of the IKK-2 coding region (DYKDDDDKD). The hlKK-2:FLAG cDNA was subcloned into the baculovirus vector pFastBac. The rhIKK-2 ([…]) mutant was constructed in the same vector used for wild type rhIKK-2 using a QuikChange™ mutagenesis kit (Stratagene). Viral stocks of each construct were used to infect insect cells grown in 40 L suspension culture. […] Cell lysates were stored at −80° C. until purification of the recombinant proteins was undertaken as described below.
Enzyme Isolation: All purification procedures were carried out at 4° C. unless otherwise noted. Buffers used are: buffer A: 20 mM Tris-HCl, pH 7.6, containing 50 mM NaCl, 20 mM NaF, 20 mM β-Glycerophosphate, 500 μM sodium orthovanadate, 2.5 mM metabisulfite, 5 mM benzamidine, 1 mM EDTA, 0.5 mM EGTA, 10% glycerol, 1 mM DTT, 1× Complete™ protease inhibitors; buffer B: same as buffer A, except 150 mM NaCl, and buffer C: same as buffer A, except 500 mM NaCl.
Isolation of rhIKK-2 homodimer: A 10-liter culture of baculovirus-expressing IKK-2 tagged with FLAG peptide was centrifuged and the cell pellet (MOI=0.1 and 1=72 h) was re-suspended in buffer A. These cells were microfluidized, and centrifuged at 100,000×g for 45 min. Supernatant was passed over a G-25 column equilibrated with Buffer A. Protein peak was collected and incubated with anti-FLAG affinity resin on a rotator overnight in buffer B. The resin was washed in batch with 10-15 bed volumes of buffer C. Washed resin was poured into a column and rhIKK-2 homodimer was eluted using 5 bed volumes of buffer B containing FLAG peptide. 5 mM DTT, 0.1% NP-40 and BSA (concentrated to 0.1% in final amount) was added to the eluted enzyme before concentrating in using an Amicon membrane with a molecular weight cut-off of 30 kDa. Enzyme was aliquoted and stored at −80° C.
IKK-2 Resin Enzyme Assay: IKK-2 kinase activity was measured using a biotinylated IκBα peptide (Gly-Leu-Lys-Lys-Glu-Arg-Leu-Leu-Asp-Asp-Arg-His-Asp-Ser32-Gly-Leu-Asp-Ser36-Met-Lys-Asp-Glu-Glu) (American Peptide Co.). 20 μL of the standard reaction mixture contained 5 μM biotinylated IκBα peptide, 0.1 μCi/reaction [γ-^33P] ATP (Amersham) (about 1×10^5 cpm), 1 μM ATP (Sigma), 1 mM DTT (Sigma), 2 mM MgCl2 (Sigma), 2 mM MnCl2 (Sigma), 10 mM NaF (Sigma), 25 mM Hepes (Sigma) buffer, pH 7.6 and 20 μL enzyme solution and 10 μL inhibitor in a final volume of 50 μL. After incubation at 25° C. for 30 min, 150 μL resin (Dowex anion-exchange resin AG1X8 200-400 mesh) in 900 mM formate, pH 3.0 was added to each well to stop the reaction. Resin was allowed to settle for 1 h and 50 μL of supernatant was removed to a Micolite-2 flat bottom plate (Dynex). […]

Row | Structure (SMILES) | IC50 [µM]
1 | NC(=O)Nc1cn(-c2ccc(-c3cccc(-n4cccn4)c3)cc2)nc1C(N)=O [Example 130, 4-[(aminocarbonyl)amino]-1-[3′-(1H-pyrazol-1-yl)-1,1′-biphenyl-4-yl]-1H-pyrazole-3-carboxamide] | 1.79
2 | NC(=O)Nc1cn(-c2cccc(-c3cccc(C(F)(F)F)c3)c2)nc1C(N)=O [Example 367, 4-[(aminocarbonyl)amino]-1-[3′-(trifluoromethyl)-1,1′-biphenyl-3-yl]-1H-pyrazole-3-carboxamide] | > 20
3 | Cc1ccc(-c2ccc(-n3cc(NC(N)=O)c(C(N)=O)n3)cc2)cc1 [Example 103] | > 20
4 | NC(=O)Nc1cn(-c2ccc(Sc3ccc(F)cc3)cc2Cl)nc1C(N)=O [Example 376, 1-(1-(4-(4-fluorophenylthio)-2-chlorophenyl)-3-carbamoyl-1H-pyrazol-4-yl)urea] | 0.31
5 | NC(=O)Nc1cn(-c2ccc(SC3CCCC3)cc2)nc1C(N)=O [Example 207, 1-(3-carbamoyl-1-(4-(cyclopentylthio)phenyl)-1H-pyrazol-4-yl)urea] | 1.32
6 | CC(C)(C)OC(=O)COc1ccc(F)cc1-c1ccc(-n2cc(NC(N)=O)c(C(N)=O)n2)cc1 [Example 182, tert-butyl [(4′-{3-(aminocarbonyl)-4-[(aminocarbonyl)amino]-1H-pyrazol-1-yl}-5-fluoro-1,1′-biphenyl-2-yl)oxy]acetate] | 11.2
7 | NC(=O)Nc1cn(-c2ccc(-c3ccc(C(=O)NCc4cccc(F)c4)c(F)c3)cc2)nc1C(N)=O [Example 156, 4-[(aminocarbonyl)amino]-1-(3′-fluoro-4′-{[(3-fluorobenzyl)amino]carbonyl}-1,1′-biphenyl-4-yl)-1H-pyrazole-3-carboxamide] | 0.61
8 | Cc1ccc(-n2cc(NC(N)=O)c(C(N)=O)n2)cc1 [Example 18, 4-[(aminocarbonyl)amino]-1-(4-methylphenyl)-1H-pyrazole-3-carboxamide] | 0.3
9 | COc1ccc(-c2cccc(-n3cc(NC(N)=O)c(C(N)=O)n3)c2)cc1OC [Example 56, 4-[(aminocarbonyl)amino]-1-(3,4′-dimethoxy-1,1′-biphenyl-3-yl)-1H-pyrazole-3-carboxamide] | 2.16
10 | NC(=O)NC(=O)Nc1cn(-c2ccc(Br)c(C(F)(F)F)c2)nc1C(N)=O [Example 2, 4-({[(aminocarbonyl)amino]carbonyl}amino)-1-[4-bromo-3-(trifluoromethyl)phenyl]-1H-pyrazole-3-carboxamide] | 10.7
11 | NC(=O)CCc1cccc(-c2ccc(-n3cc(NC(N)=O)c(C(N)=O)n3)cc2)c1 [Example 338, 4-[(aminocarbonyl)amino]-1-[3′-(3-amino-3-oxopropyl)-1,1′-biphenyl-4-yl]-1H-pyrazole-3-carboxamide] | 0.62
12 | NC(=O)Nc1cn(-c2ccc(-c3cccc(Cl)c3Cl)cc2)nc1C(N)=O [Example 133, 4-[(aminocarbonyl)amino]-1-(2′,3′-dichloro-1,1′-biphenyl-4-yl)-pyrazole-3-carboxamide] | 1.63
13 | N#Cc1cccc(-c2cccc(-n3cc(NC(N)=O)c(C(N)=O)n3)c2)c1 [Example 341, 4-[(aminocarbonyl)amino]-1-(3′-cyano-1,1′-biphenyl-3-yl)-1H-pyrazole-3-carboxamide] | 0.984
14 | NC(=O)Nc1cn(-c2cccc(-c3ccccc3OCc3ccccc3)c2)nc1C(N)=O [Example 86, 4-[(aminocarbonyl)amino]-1-[2′-(benzyloxy)-1,1′-biphenyl-3-yl]-1H-pyrazole-3-carboxamide] | 5.91
15 | Cc1cccc(-c2cccc(-n3cc(NC(N)=O)c(C(N)=O)n3)c2)c1 [Example 340, 4-[(aminocarbonyl)amino]-1-(3′-methyl-1,1′-biphenyl-3-yl)-1H-pyrazole-3-carboxamide] | > 20
16 | NC(=O)Nc1nn(-c2ccc(-c3ccc4ccccc4c3)cc2)cc1C(N)=O [Example 123] | > 20
17 | CCc1cc(Br)ccc1-n1cc(NC(N)=O)c(C(N)=O)n1 [Example 281, 4-[(aminocarbonyl)amino]-1-(4-bromo-2-ethylphenyl)-1H-pyrazole-3-carboxamide] | 10.6
18 | NC(=O)Nc1cn(-c2ccc(-c3ccncc3)cc2)nc1C(N)=O [Example 40, 4-[(aminocarbonyl)amino]-1-(4-pyridin-4-ylphenyl)-1H-pyrazole-3-carboxamide] | 0.351
19 | Cc1cc(F)ccc1-c1cccc(-n2cc(NC(N)=O)c(C(N)=O)n2)c1 [Example 345, 4-[(aminocarbonyl)amino]-1-(4′-fluoro-2′-methyl-1,1′-biphenyl-3-yl)-1H-pyrazole-3-carboxamide] | > 20
20 | CC(C#N)Oc1ccc(F)cc1-c1ccc(-n2cc(NC(N)=O)c(C(N)=O)n2)cc1 (stereo not drawn) [Example 180, 4-[(aminocarbonyl)amino]-1-[2′-(1-cyanoethoxy)-5′-fluoro-1,1′-biphenyl-4-yl]-1H-pyrazole-3-carboxamide] | 0.228
21 | NC(=O)Nc1cn(-c2ccc(Cl)cc2)nc1C(N)=O [Example 214, 4-[(aminocarbonyl)amino]-1-(4-chlorophenyl)-1H-pyrazole-3-carboxamide] | 0.382
22 | Cc1cc(-n2cc(NC(N)=O)c(C(N)=O)n2)ccc1-c1ccc(F)cc1OCC#N [Example 244, 1-(2′-Cyanomethoxy-4′-fluoro-2-methyl-biphenyl-4-yl)-4-ureido-1H-pyrazole-3-carboxylic acid amide] | 0.866
23 | CC(=O)c1ccc(-c2cccc(-n3cc(NC(N)=O)c(C(N)=O)n3)c2)cc1 [Example 53, 1-(4′-acetyl-1,1′-biphenyl-3-yl)-4-[(aminocarbonyl)amino]-1H-pyrazole-3-carboxamide] | 4.07
24 | NC(=O)Nc1cn(-c2cccc(-c3ccc(-c4ccccc4)cc3)c2)nc1C(N)=O [Example 373, 4-[(aminocarbonyl)amino]-1-(1,1′:4′,1″-terphenyl-3-yl)-1H-pyrazole-3-carboxamide] | > 20
